System: A375P cell line (melanoma)
Test: Proliferation inhibition activity against A375P cell line (MTT assay)
Assay type: cell-based
Settings: A375P melanoma cells; for GI50: MTT assay, read-out: A375P (GI50); for effects against A375P: statement in words
Method: Measurement of Proliferation Inhibition Activity Against A375P Cell Line (Melanoma)
An A375P cell line purchased from ATCC was cultured in a DMEM medium [containing 10% FBS, 1% penicillin/streptomycin] at 37° C. in the presence of 5% CO2. The cultured A375P cell line was taken using 0.05% trypsin-0.02% EDTA, and seeded into a 96-well plate at a density of 5×10^3 cells per well.
Cell viability was measured using an MTT [3-(4,5-dimethylthiazol-2-yl)-2,5-diphenyltetrazolium bromide] assay (CellTiter 96 Assay, Promega) as follows. 15 μl of dye was placed per well, the cells were cultured for 2 hours, and then treated with 100 μl of a stop solution, and after 24 hours, absorbance was measured. One day after plating, they were treated with compounds. For treatment with compounds, […] of stock was prepared, and serially diluted to one-third in dimethyl sulfoxide (DMSO) to prepare a 12-point test compound plate, and 0.5 μl was added (final concentration DMSO 0.5%).
In the following Tables 1 to 3, in a case of GI50 being 10 to 30 μM, it was indicated as (+), in a case of it being 1 to 10 μM, it was indicated as (++), and in case of being less than 1 μM, it was indicated as (+++).

SMILES: CCN1CCN(Cc2ccc(NC(=O)Nc3cccc(C4=Nc5cscc5NC(=O)C4)c3)cc2C(F)(F)F)CC1 [Example 49, 1-(4-((4-ethylpiperazine-1-yl)methyl)-3-(trifluoromethyl)phenyl)-3-(3-(2-oxo-2,3-dihydro-1H-thieno[3,4-b][1,4]diazepine-4-yl)phenyl)urea]
- GI50: < 1 µM
- effects against A375P: significant effects

SMILES: O=C1CC(c2cccc(NC(=O)Nc3ccc(Cl)c(Cl)c3)c2)=Nc2cscc2N1 [Example 50, 1-(3,4-dichlorophenyl)-3-(3-(2-oxo-2,3-dihydro-1H-thieno[3,4-b][1,4]diazepine-4-yl)phenyl)urea]
- GI50: 1 to 10 µM

SMILES: O=C1CC(c2ccc(NC(=O)Nc3cc(Cl)cc(Cl)c3)cc2)=Nc2cscc2N1 [Example 44, 1-(3,5-dichlorophenyl)-3-(4-(2-oxo-2,3-dihydro-1H-thieno[3,4-b][1,4]diazepine-4-yl)phenyl)urea]
- GI50: < 1 µM
- effects against A375P: significant effects

SMILES: O=C1CC(c2ccc(NC(=O)c3cc(N4CCOCC4)cc(C(F)(F)F)c3)cc2)=Nc2cscc2N1 [Example 3, 3-morpholino-N-(4-(2-oxo-2,3-dihydro-1H-thieno[3,4-b][1,4]diazepine-4-yl)phenyl)-5-(trifluoromethyl)benzamide]
- GI50: < 1 µM
- effects against A375P: significant effects

SMILES: O=C1CC(c2ccc(NC(=O)c3cnn(-c4ccccc4)c3C(F)(F)F)cc2)=Nc2cscc2N1 [Example 7, N-(4-(2-oxo-2,3-dihydro-1H-thieno[3,4-b][1,4]diazepine-4-yl)phenyl)-1-phenyl-5-(trifluoromethyl)-1H-pyrazole-4-carboxamide]
- GI50: 1 to 10 µM

SMILES: O=C1CC(c2cccc(NC(=O)Nc3cc(Cl)cc(Cl)c3)c2)=Nc2cscc2N1 [Example 51, 1-(3,5-dichlorophenyl)-3-(3-(2-oxo-2,3-dihydro-1H-thieno[3,4-b][1,4]diazepine-4-yl)phenyl)urea]
- GI50: 10 to 30 µM

SMILES: CC(=O)N1CCC(C(=O)Nc2cccc(C3=Nc4cscc4NC(=O)C3)c2)CC1 [Example 25, 1-acetyl-N-(3-(2-oxo-2,3-dihydro-1H-thieno[3,4-b][1,4]diazepine-4-yl)phenyl)piperidine-4-carboxamide]
- GI50: 10 to 30 µM

SMILES: O=C1CC(c2cccc(NC(=O)c3ccc(N4CCOCC4)c(C(F)(F)F)c3)c2)=Nc2cscc2N1 [Example 21, 4-morpholino-N-(3-(2-oxo-2,3-dihydro-1H-thieno[3,4-b][1,4]diazepine-4-yl)phenyl)-3-(trifluoromethyl)benzamide]
- GI50: 1 to 10 µM

SMILES: O=C1CC(c2cccc(NC(=O)c3ccc4ccccc4n3)c2)=Nc2cscc2N1 [Example 36, N-(3-(2-oxo-2,3-dihydro-1H-thieno[3,4-b][1,4]diazepine-4-yl)phenyl)quinoline-2-carboxamide]
- GI50: 10 to 30 µM

SMILES: CN1CCN(c2cc(C(=O)Nc3cccc(C4=Nc5cscc5NC(=O)C4)c3)cc(C(F)(F)F)c2)CC1 [Example 29, 3-(4-methylpiperazine-1-yl)-N-(3-(2-oxo-2,3-dihydro-1H-thieno[3,4-b][1,4]diazepine-4-yl)phenyl)-5-(trifluoromethyl)benzamide]
- GI50: 10 to 30 µM

SMILES: O=C(Cc1c[nH]c2ccccc12)Nc1cccc(C2=Nc3cscc3NC(=O)C2)c1 [Example 31, 2-(1H-indol-3-yl)-N-(3-(2-oxo-2,3-dihydro-1H-thieno[3,4-b][1,4]diazepine-4-yl)phenyl)acetamide]
- GI50: 10 to 30 µM

SMILES: O=C1CC(c2ccc(NC(=O)c3ccc(Cl)cc3)cc2)=Nc2cscc2N1 [Example 13, 4-chloro-N-(4-(2-oxo-2,3-dihydro-1H-thieno[3,4-b][1,4]diazepine-4-yl)phenyl)benzamide]
- GI50: 10 to 30 µM

SMILES: O=C1CC(c2cccc(NC(=O)Nc3cccc(Cl)c3)c2)=Nc2cscc2N1 [Example 48, 1-(3-chlorophenyl)-3-(3-(2-oxo-2,3-dihydro-1H-thieno[3,4-b][1,4]diazepine-4-yl)phenyl)urea]
- GI50: < 1 µM
- effects against A375P: significant effects

SMILES: CN1CCN(c2cc(C(=O)Nc3ccc(C4=Nc5cscc5NC(=O)C4)cc3)cc(C(F)(F)F)c2)CC1 [Example 12, 3-(4-methylpiperazine-1-yl)-N-(4-(2-oxo-2,3-dihydro-1H-thieno[3,4-b][1,4]diazepine-4-yl)phenyl)-5-(trifluoromethyl)benzamide]
- GI50: 10 to 30 µM

SMILES: Cc1cn(-c2cc(C(=O)Nc3ccc(C4=Nc5cscc5NC(=O)C4)cc3)cc(C(F)(F)F)c2)cn1 [Example 2, 3-(4-methyl-1H-imidazol-1-yl)-N-(4-(2-oxo-2,3-dihydro-1H-thieno[3,4-b][1,4]diazepine-4-yl)phenyl)-5-(trifluoromethyl)benzamide]
- GI50: < 1 µM
- effects against A375P: significant effects

SMILES: O=C1CC(c2ccc(NC(=O)Nc3ccc(Cl)cc3)cc2)=Nc2cscc2N1 [Example 40, 1-(4-chlorophenyl)-3-(4-(2-oxo-2,3-dihydro-1H-thieno[3,4-b][1,4]diazepine-4-yl)phenyl)urea]
- GI50: 1 to 10 µM

SMILES: O=C1CC(c2ccc(NC(=O)c3ccc(-c4ccccc4)cc3)cc2)=Nc2cscc2N1 [Example 5, N-(4-(2-oxo-2,3-dihydro-1H-thieno[3,4-b][1,4]diazepine-4-yl)phenyl)biphenyl-4-carboxamide]
- GI50: < 1 µM
- effects against A375P: significant effects

SMILES: O=C1CC(c2cccc(NC(=O)c3cnn(-c4ccccc4)c3C(F)(F)F)c2)=Nc2cscc2N1 [Example 24, N-(3-(2-oxo-2,3-dihydro-1H-thieno[3,4-b][1,4]diazepine-4-yl)phenyl)-1-phenyl-5-(trifluoromethyl)-1H-pyrazole-4-carboxamide]
- GI50: 10 to 30 µM
